According to the Kinase Knowledgebase extract (Sharma et al. 2016):

How the values were obtained:
PIK3CA (human) [1] = biological target: PIK3CA (human) (UniProt P42336); test: Enzyme Assay
PIK3CB (Human) = PIK3CB (Human) (UniProt P42338); test: Enzyme Assay
PIK3CG (human) = PIK3CG (human) (UniProt P48736); test: Enzyme Assay
PIK3CD (Human) = PIK3CD (Human) (UniProt O00329); test: Enzyme Assay
PIK3CA (human) [2] = biological target: PIK3CA (human) (UniProt P42336); test: Cell-Based Assay

Sequence of PIK3CB (Human) (P42338 whole entry, looked up): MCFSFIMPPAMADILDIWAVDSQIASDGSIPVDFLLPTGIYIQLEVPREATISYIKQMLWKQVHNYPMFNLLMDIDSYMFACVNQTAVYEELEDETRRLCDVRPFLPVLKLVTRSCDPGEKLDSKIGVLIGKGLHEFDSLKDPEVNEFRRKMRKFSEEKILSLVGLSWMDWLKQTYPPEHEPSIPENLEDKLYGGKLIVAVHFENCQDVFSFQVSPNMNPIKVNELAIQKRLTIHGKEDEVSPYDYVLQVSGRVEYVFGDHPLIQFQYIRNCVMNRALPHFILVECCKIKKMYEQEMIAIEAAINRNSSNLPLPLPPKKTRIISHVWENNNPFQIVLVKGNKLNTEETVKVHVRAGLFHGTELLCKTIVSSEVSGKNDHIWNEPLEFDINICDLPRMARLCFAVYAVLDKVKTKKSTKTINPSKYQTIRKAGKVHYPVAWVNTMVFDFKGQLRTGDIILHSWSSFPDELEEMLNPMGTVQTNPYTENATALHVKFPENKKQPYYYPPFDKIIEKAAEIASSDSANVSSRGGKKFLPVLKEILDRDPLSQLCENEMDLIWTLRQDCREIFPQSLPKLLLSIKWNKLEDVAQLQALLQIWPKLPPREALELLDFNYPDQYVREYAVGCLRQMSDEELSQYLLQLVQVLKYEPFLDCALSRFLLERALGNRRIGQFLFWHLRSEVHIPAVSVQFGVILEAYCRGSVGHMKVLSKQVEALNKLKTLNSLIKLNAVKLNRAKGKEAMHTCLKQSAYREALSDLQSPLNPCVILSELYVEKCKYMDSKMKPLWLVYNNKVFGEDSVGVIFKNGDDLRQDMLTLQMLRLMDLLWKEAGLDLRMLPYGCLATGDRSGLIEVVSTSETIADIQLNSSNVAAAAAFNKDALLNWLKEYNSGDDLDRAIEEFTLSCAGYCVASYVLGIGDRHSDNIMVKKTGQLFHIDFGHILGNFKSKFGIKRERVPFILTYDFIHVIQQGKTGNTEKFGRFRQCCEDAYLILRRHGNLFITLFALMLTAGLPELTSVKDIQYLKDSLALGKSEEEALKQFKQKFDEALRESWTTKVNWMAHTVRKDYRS
Sequence of PIK3CD (Human) (O00329 whole entry, looked up): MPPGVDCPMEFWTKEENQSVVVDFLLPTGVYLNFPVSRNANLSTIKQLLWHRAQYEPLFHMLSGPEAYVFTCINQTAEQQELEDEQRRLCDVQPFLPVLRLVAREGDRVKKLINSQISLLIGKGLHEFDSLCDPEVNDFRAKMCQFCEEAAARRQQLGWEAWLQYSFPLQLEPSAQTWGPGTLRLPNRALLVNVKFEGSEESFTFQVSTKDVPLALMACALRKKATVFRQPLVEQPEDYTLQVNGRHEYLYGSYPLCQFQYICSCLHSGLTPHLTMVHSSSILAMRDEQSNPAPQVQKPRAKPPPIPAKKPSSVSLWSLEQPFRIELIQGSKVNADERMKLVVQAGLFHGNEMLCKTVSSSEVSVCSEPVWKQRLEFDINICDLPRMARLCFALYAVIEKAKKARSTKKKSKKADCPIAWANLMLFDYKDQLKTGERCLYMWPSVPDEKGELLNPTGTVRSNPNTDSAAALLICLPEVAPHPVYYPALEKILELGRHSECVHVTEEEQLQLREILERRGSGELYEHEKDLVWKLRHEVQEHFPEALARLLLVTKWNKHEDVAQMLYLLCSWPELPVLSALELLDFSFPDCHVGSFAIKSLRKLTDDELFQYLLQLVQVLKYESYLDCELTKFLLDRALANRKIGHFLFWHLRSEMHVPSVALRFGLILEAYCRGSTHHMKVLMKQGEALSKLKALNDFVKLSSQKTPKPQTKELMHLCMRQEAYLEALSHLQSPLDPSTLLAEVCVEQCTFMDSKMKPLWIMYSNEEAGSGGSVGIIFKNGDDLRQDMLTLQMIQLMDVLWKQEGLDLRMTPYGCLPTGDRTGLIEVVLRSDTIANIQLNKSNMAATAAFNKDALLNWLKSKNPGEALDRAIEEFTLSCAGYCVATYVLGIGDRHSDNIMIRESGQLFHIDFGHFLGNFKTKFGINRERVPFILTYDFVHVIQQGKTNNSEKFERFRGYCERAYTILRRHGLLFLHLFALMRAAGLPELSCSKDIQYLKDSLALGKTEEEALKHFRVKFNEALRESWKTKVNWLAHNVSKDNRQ
Sequence of PIK3CA (human) (P42336 whole entry, looked up): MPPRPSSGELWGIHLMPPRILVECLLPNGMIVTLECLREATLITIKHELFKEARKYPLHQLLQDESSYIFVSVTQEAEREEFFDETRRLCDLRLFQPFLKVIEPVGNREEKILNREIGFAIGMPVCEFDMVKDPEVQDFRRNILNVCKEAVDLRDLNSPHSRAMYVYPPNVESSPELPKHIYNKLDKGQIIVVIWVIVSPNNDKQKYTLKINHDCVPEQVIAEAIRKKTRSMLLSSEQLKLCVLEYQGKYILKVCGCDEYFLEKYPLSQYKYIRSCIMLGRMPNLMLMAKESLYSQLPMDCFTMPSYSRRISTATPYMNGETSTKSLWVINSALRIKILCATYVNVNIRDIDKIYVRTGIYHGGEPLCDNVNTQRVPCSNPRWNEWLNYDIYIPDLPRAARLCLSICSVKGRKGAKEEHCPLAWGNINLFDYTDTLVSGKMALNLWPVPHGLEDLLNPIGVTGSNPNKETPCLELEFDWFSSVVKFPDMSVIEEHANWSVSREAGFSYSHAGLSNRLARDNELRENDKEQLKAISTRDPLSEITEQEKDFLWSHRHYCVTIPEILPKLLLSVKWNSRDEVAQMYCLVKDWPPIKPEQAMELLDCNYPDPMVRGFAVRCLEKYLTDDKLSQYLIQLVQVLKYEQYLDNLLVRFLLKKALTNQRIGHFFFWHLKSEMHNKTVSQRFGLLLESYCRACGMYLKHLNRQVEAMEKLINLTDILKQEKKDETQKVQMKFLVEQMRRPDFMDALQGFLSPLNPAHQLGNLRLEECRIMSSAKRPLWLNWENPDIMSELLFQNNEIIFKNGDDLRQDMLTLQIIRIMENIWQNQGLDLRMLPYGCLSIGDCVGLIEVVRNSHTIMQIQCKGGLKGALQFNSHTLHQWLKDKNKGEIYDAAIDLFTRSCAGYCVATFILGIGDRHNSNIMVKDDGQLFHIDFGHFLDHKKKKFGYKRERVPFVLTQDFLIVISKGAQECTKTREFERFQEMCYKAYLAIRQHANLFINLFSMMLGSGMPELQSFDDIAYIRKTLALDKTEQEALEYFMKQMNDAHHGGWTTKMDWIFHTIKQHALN
Sequence of PIK3CG (human) (P48736 whole entry, looked up): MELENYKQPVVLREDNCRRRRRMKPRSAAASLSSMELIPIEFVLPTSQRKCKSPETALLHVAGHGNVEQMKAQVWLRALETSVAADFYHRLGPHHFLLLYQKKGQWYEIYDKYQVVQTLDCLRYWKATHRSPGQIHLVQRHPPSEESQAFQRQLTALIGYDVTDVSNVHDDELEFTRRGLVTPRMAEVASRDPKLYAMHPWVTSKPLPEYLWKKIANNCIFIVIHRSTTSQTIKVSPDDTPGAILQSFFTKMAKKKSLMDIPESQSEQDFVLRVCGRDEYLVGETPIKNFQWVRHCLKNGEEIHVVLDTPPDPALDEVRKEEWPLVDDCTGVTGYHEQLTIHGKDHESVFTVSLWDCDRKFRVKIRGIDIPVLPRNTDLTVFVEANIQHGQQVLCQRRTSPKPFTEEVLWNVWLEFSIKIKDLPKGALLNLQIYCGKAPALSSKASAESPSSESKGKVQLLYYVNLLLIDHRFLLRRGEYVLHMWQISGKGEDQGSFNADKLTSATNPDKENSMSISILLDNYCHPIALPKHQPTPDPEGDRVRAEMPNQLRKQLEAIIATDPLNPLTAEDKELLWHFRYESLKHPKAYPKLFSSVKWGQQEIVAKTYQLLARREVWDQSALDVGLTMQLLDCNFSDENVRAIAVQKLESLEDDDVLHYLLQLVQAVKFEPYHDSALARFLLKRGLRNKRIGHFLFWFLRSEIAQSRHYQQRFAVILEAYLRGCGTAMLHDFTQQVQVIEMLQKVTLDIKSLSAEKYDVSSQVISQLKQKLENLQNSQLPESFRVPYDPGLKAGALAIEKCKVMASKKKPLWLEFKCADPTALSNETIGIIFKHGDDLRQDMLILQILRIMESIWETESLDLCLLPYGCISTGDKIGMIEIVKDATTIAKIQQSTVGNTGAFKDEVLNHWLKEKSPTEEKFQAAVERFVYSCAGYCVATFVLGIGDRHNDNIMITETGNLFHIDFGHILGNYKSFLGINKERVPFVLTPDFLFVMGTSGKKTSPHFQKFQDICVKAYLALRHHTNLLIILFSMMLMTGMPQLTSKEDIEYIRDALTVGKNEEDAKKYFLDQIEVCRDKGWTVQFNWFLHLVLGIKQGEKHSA

Row | Structure (SMILES) | IC50 (PIK3CA (human) [1]) [nM] | IC50 (PIK3CG (human)) [nM] | IC50 (PIK3CD (Human)) [nM] | IC50 (PIK3CA (human) [2]; t47d) [nM] | further results
1 | Nc1nc2cc(-c3ccc4ncc(N[C@H]5CC[C@H](O)CC5)nc4c3)ccc2o1 | < 100 | < 100 | < 100 |  | 
2 | Nc1nc2cc(-c3ccc4ncc(C(=O)N5C6CCC5COC6)n4c3)ccc2o1 | 100 to 1000 | < 100 |  |  | IC50 (PIK3CA (human) [2]; pc3): 100 to 1000 nM
3 | CC(=O)Nc1nc2ccc(-c3ccc4oc(N)nc4c3)cc2s1 | < 100 | < 100 | < 100 | 100 to 1000 | IC50 (PIK3CB (Human)): 100 to 1000 nM
4 | Nc1nc2cc(-c3ccc4ncc(-c5ccncc5)n4n3)ccc2o1 | < 100 | < 100 |  | 100 to 1000 | IC50 (PIK3CA (human) [2]; pc3): 100 to 1000 nM; IC50 (PIK3CB (Human)): 100 to 1000 nM
5 | NC1=NC2C=C(c3ccc4nc(N)oc4c3)C=CC2O1 (stereo not given) | 100 to 1000 | < 100 | 100 to 1000 |  | 
6 | NC1=NC2C=C(c3ccc4oc(N)nc4c3)C=CC2O1 (stereo not given) | 100 to 1000 | < 100 |  |  | 
7 | CS(=O)(=O)N1CCC(n2cnc3ccc(-c4ccc5oc(N)nc5c4)cc3c2=O)CC1 | 100 to 1000 | > 10000 | > 10000 |  | 
8 | Nc1nc2cc(-c3ccc4ncn(-c5ccncc5)c4c3)ccc2o1 | < 100 | 100 to 1000 |  |  | IC50 (PIK3CA (human) [2]; pc3): > 10000 nM
9 | Nc1nc2cc(-c3ccc4ncc(S(=O)(=O)N5CCOCC5)n4c3)ccc2o1 | > 10000 | > 10000 | > 10000 |  | IC50 (PIK3CB (Human)): > 10000 nM
10 | Nc1nc2ccc(-c3ccc4nccc(-c5ccncc5)c4c3)cc2o1 | < 100 | < 100 | < 100 |  | IC50 (PIK3CA (human) [2]; pc3): < 100 nM; IC50 (PIK3CB (Human)): < 100 nM
11 | Nc1nc2cc(-c3ccc4ncc(N5CCN(CC6CC6)CC5)nc4c3)ccc2o1 |  |  |  | 100 to 1000 | 
12 | CN1CCC(N(C)C(=O)c2cnc3ccc(-c4ccc5oc(N)nc5c4)cn23)CC1 |  |  |  |  | IC50 (PIK3CA (human) [2]; pc3): 100 to 1000 nM
13 | COC1CN(C(=O)c2cnc3ccc(-c4ccc5oc(N)nc5c4)cn23)C1 |  |  |  |  | IC50 (PIK3CA (human) [2]; pc3): 100 to 1000 nM
14 | Nc1nc2cc(-c3ccc4ncc(N5CCCC5)nc4c3)ccc2o1 |  |  |  | 100 to 1000 | 
15 | Nc1nc2cc(-c3ccc4ncc(C(=O)N5CC[C@H](O)C5)n4c3)ccc2o1 |  |  |  | 100 to 1000 | 
16 | Nc1nc2cc(-c3ccc4ncc(N5CC6CCC(C5)O6)cc4n3)ccc2o1 |  |  |  |  | IC50 (PIK3CA (human) [2]; mda-mb-361): 100 to 1000 nM
17 | CC(=O)Nc1cc2ccc(-c3cc(F)c4oc(N)nc4c3)cn2n1 | > 10000 |  | > 10000 |  | IC50 (PIK3CB (Human)): > 10000 nM
18 | CN1CCN(C2CN(c3cnc4ccc(-c5ccc6oc(N)nc6c5)cc4n3)C2)CC1 |  |  |  | 100 to 1000 | 
19 | C[C@H]1COCCN1C1CN(c2cnc3ccc(-c4ccc5oc(N)nc5c4)nc3n2)C1 |  |  |  |  | IC50 (PIK3CA (human) [2]; mda-mb-361): > 10000 nM
20 | Nc1nc2cc(-c3ccc4ncc(C(=O)N5CCC(N6CCC(F)(F)C6)C5)n4c3)ccc2o1 (stereo not given) | 100 to 1000 |  |  |  | IC50 (PIK3CB (Human)): > 10000 nM

Row | Structure (SMILES) | IC50 (PIK3CA (human) [1]) [nM] | IC50 (PIK3CG (human)) [nM] | IC50 (PIK3CD (Human)) [nM] | IC50 (PIK3CA (human) [2]; t47d) [nM] | further results
21 | CC1CN(c2cnc3ccc(-c4ccc5oc(N)nc5c4)cc3n2)CCN1 (stereo not given) |  |  |  | > 10000 | 
22 | Nc1nc2cc(-c3ccc4ncc(N5CC(N6CCNCC6)C5)nc4n3)ccc2o1 |  |  |  |  | IC50 (PIK3CA (human) [2]; mda-mb-361): > 10000 nM
23 | Nc1nc2cc(-c3ccc4ncc(-c5cccnc5)cc4n3)ccc2o1 |  |  |  |  | IC50 (PIK3CA (human) [2]; mda-mb-361): > 10000 nM
24 | Nc1nc2cc(-c3ccc4ncc(N5CC(N6CCS(=O)(=O)CC6)C5)nc4c3)ccc2o1 |  |  |  | 100 to 1000 | 
25 | Nc1nc2cc(-c3ccc4ncc(C(=O)Nc5cccnc5)n4c3)ccc2o1 |  |  |  | > 10000 | 
26 | O=C(c1cnc2ccc(-c3cnc(Cl)c(NS(=O)(=O)c4ccccc4)c3)cn12)N1CCOCC1 |  |  |  |  | IC50 (PIK3CA (human) [2]; pc3): 100 to 1000 nM
27 | C[C@H]1CN(c2cnc3ccc(-c4ccc5oc(N)nc5c4)cc3c2)CCN1 | < 100 |  | > 10000 |  | IC50 (PIK3CB (Human)): < 100 nM
28 | CN1CCN(C(=O)C2CN(c3cnc4ccc(-c5ccc6oc(N)nc6c5)cc4n3)C2)CC1 |  |  |  | 100 to 1000 | 
29 | Nc1nc2cc(-c3ccc4ncc(N5C6CCC5COC6)nc4n3)ccc2o1 |  |  |  |  | IC50 (PIK3CA (human) [2]; mda-mb-361): 100 to 1000 nM
30 | CNC(=O)N1CCN(c2cnc3ccc(-c4ccc5oc(N)nc5c4)cc3n2)CC1 |  |  |  | 100 to 1000 | 
31 | CC1CN(C(=O)c2cnc3ccc(-c4ccc5oc(N)nc5c4)cn23)CCN1 (stereo not given) | 100 to 1000 | > 10000 | > 10000 |  | IC50 (PIK3CB (Human)): 100 to 1000 nM
32 | C[C@@H]1CN(C2CN(c3cnc4ccc(-c5ccc6oc(N)nc6c5)nc4c3)C2)CCN1C |  |  |  |  | IC50 (PIK3CA (human) [2]; mda-mb-361): 100 to 1000 nM
33 | C[C@@H]1CN(C2CN(c3cnc4ccc(-c5ccc6oc(N)nc6c5)nc4c3)C2)CCN1 |  |  |  |  | IC50 (PIK3CA (human) [2]; mda-mb-361): 100 to 1000 nM
34 | COc1ncc(-c2ccc3ncn(C4CCN(C(C)C)CC4)c(=O)c3c2)cc1NS(=O)(=O)c1ccccc1 |  |  |  |  | IC50 (PIK3CA (human) [2]; pc3): 100 to 1000 nM
35 | Nc1nc2cc(-c3ccc4ncc(N5CC(C(=O)N6CCN(C7CC7)CC6)C5)nc4c3)ccc2o1 |  |  |  | 100 to 1000 | 
36 | CC1(C)CN(C2CN(c3cnc4ccc(-c5ccc6oc(N)nc6c5)nc4c3)C2)CCN1 |  |  |  |  | IC50 (PIK3CA (human) [2]; mda-mb-361): 100 to 1000 nM
37 | CC(=O)N1CCC(N(C)c2ncnc3ccc(-c4ccc5oc(N)nc5c4)cc23)CC1 |  |  |  | 100 to 1000 | 
38 | Nc1nc2cc(-c3ccc4ncc(N5CCOCC5)nc4n3)ccc2o1 |  |  |  |  | IC50 (PIK3CA (human) [2]; mda-mb-361): 100 to 1000 nM
39 | Nc1nc2cc(-c3ccc4ncc(N5CC(N6CCN(CC7CC7)CC6)C5)cc4n3)ccc2o1 |  |  |  |  | IC50 (PIK3CA (human) [2]; mda-mb-361): 100 to 1000 nM

The next lines start with results.

Row | IC50 (PIK3CA (human) [1]) [nM] | IC50 (PIK3CG (human)) [nM] | IC50 (PIK3CD (Human)) [nM] | IC50 (PIK3CA (human) [2]; t47d) [nM] | Structure (SMILES) | further results
40 | < 100 | 100 to 1000 | 100 to 1000 |  | Nc1nc2cc(-c3ccc4ncc(NCCN5CCOCC5)nc4c3)ccc2o1 | IC50 (PIK3CB (Human)): 100 to 1000 nM
41 | < 100 | < 100 | < 100 | 100 to 1000 | Nc1nc2cc(-c3ccc4nccc(-c5ccncc5)c4c3)ccc2o1 | IC50 (PIK3CA (human) [2]; pc3): 100 to 1000 nM
42 | 100 to 1000 | > 10000 | > 10000 |  | CN1CCN(n2cnc3ccc(-c4ccc5oc(N)nc5c4)cc3c2=O)CC1 | IC50 (PIK3CB (Human)): > 10000 nM
43 | 100 to 1000 |  | > 10000 |  | CN1CCN(C(=O)c2cnn3ccc(-c4ccc5oc(N)nc5c4)cc23)CC1 | 
44 |  |  | < 100 |  | COc1ncc(-c2ccc3ncn(C4CCN(C)CC4)c(=O)c3c2)cc1NS(C)(=O)=O | 
45 |  | < 100 |  |  | C[C@H]1CN(c2cnc3ccc(-c4cccc5c(N)nsc45)cc3n2)CCN1 | 
46 | < 100 | < 100 | 100 to 1000 | 100 to 1000 | Nc1nc2cc(-c3ccc4ncc(-c5ccncc5)n4c3)ccc2o1 | 
47 |  | 100 to 1000 |  | 100 to 1000 | Nc1nc2cc(-c3ccc4ncc(C(=O)N5CCC(O)C5)n4c3)ccc2o1 (stereo not given) | 
48 |  | < 100 |  |  | Nc1nc2cc(-c3ccc4ncc(C(=O)N[C@H]5CC[C@H](O)CC5)n4c3)ccc2o1 | 
49 | > 10000 | > 10000 | > 10000 |  | CNc1nsc2cc(-c3ccc4ncc(C(=O)N5CCOCC5)n4c3)ccc12 | IC50 (PIK3CB (Human)): > 10000 nM
50 | < 100 | < 100 | > 10000 | 100 to 1000 | NC(=O)[C@H]1CCCN1c1cnc2ccc(-c3ccc4oc(N)nc4c3)cc2n1 | IC50 (PIK3CB (Human)): < 100 nM
51 | 100 to 1000 | > 10000 | > 10000 |  | COC(=O)N1CCC(N2N=CC3C(N4CCOCC4)=NC(c4ccc5oc(N)nc5c4)=NC32)CC1 (stereo not given) | 
52 | > 10000 | > 10000 | > 10000 |  | CN1CCN(S(=O)(=O)c2cnc3ccc(-c4ccc5oc(N)nc5c4)cn23)CC1 | IC50 (PIK3CB (Human)): > 10000 nM
53 | < 100 | < 100 | 100 to 1000 |  | Nc1nc2cc(-c3ccc4ncc(-c5cn[nH]c5)n4n3)ccc2o1 | IC50 (PIK3CB (Human)): < 100 nM
54 | < 100 | 100 to 1000 | < 100 |  | CC1(C)CN(C2CN(C(=O)c3cnc4ccc(-c5ccc6oc(N)nc6c5)cn34)C2)CCN1 | IC50 (PIK3CA (human) [2]; pc3): 100 to 1000 nM
55 | < 100 | 100 to 1000 | 100 to 1000 | 100 to 1000 | CN(C)CC(=O)N1CCN(c2cnc3ccc(-c4ccc5oc(N)nc5c4)cc3n2)CC1 | IC50 (PIK3CB (Human)): 100 to 1000 nM
56 |  |  |  | 100 to 1000 | CCN(CC)CC(=O)N1CCN(c2cnc3ccc(-c4ccc5oc(N)nc5c4)cc3n2)CC1 | 
57 |  |  |  | 100 to 1000 | Cc1nccn1C1CN(c2cnc3ccc(-c4ccc5oc(N)nc5c4)cc3n2)C1 | 
58 |  |  |  | > 10000 | Nc1nc2cc(-c3ccc4ncc(N5CCCCC5)nc4c3)ccc2o1 | 
59 | < 100 |  |  |  | Nc1nc2cccc(-c3ccc4nccc(-c5ccncc5)c4c3)c2s1 | 
60 |  |  |  | 100 to 1000 | C[C@@H]1CN(C2CN(c3cnc4ccc(-c5ccc6oc(N)nc6c5)cc4n3)C2)CCN1 | 
61 | < 100 | 100 to 1000 | 100 to 1000 |  | Nc1nc2ccc(-c3ccc4nccc(-c5ccncc5)c4c3)cc2s1 | IC50 (PIK3CB (Human)): > 10000 nM
